Test results: patent publication US20160175221A1, “COMPOSITION FOR PREVENTING SKIN AGING CONTAINING ALOESIN OR DERIVATIVE THEREOF” (UNIVERA INC., priority 2013, published 2016)

Experiments:
[1] = test system: type I procollagen peptide (PIP); experiment: PIP level in medium by procollagen type I C-peptide EIA kit; type: cell-based, human; conditions: 0.01 μg/ml and 0.1 μg/ml
Description: (§1) The concentrations of MMP-1 and PIP in the medium were determined using commercially available enzyme-linked immunosorbent assay (ELISA) kits (Human Total MMP-1 Kit, R&D Systems, Inc., Minneapolis, Minn., USA and procollagen type I C-peptide enzyme immunoassay (EIA) kit, Takara Inc., Shiga, Japan) according to the manufacturer's instructions. Each sample was analyzed in triplicate.

[2] = test system: MMP-1; experiment: MMP-1 level in medium by ELISA (Human Total MMP-1 Kit); type: cell-based; conditions: NHDFs after UVB irradiation (144 mJ/cm^2), 72 hours, FIG. 2
Description: as §1

[3] = test system: normal human dermal fibroblasts (NHDFs); experiment: MTT colorimetric assay, cytotoxicity of treated cells; conditions: before and after UVB irradiation, 0.01 and 0.1 μg/ml before, 0.1 and 1 μg/ml after, 72 hours after treatment, FIG. 1
[4] = test system: MMP-1 mRNA; experiment: RT-PCR of MMP-1 mRNA in UVB irradiated fibroblasts; type: cell-based, human; conditions: NHDFs after UVB irradiation, 0.01 μg/ml, 0.1 μg/ml and 1 μg/ml, 24 hours; ratio to GAPDH; FIG. 4
Description: (§2) After UVB irradiation, separation of RNA from aloesin treated normal human dermal fibroblasts (NHDFs) was performed using TRIZOL reagent (Invitrogen Life Technologies, Carlsbad, […]) according to the manufacturer's instructions. RNA (5 μg) was subjected to reverse transcription using 200 units of reverse transcriptase and 0.5 μg/μl of oligo-(dT) 15 primer (Bioneer Inc., Korea). The reaction was performed at 42° C. for 60 minutes, and then terminated by heating at 94° C. for five minutes. PCR amplification of cDNA template was performed using PCR premix (Bioneer Inc.) and the following primer pairs: MMP-1, forward 5′-ATTCTACTGATATCGGGGCTTTGA-3′, reverse 5′-ATGTCCTTGGGGTATCCGTGTAG-3′; procollagen type I, forward 5′-CTCGAGGTGGACACCACCCT-3′, reverse 5′-CAGCTGGATGGCCACATCGG-3′; and glyceraldehydes-3-phosphate […] (GAPDH), sense 5′-ACCACAGTCCATGCCATCAC-3′, antisense 5′-CCACCACCCTGTTGCTGTAC-3′. […]
(§3) To investigate mRNA levels of aloesin treated cells (24 hours after treatment), the concentration of MMP-1 and procollagen type I was measured in UVB irradiated normal human dermal fibroblasts. To quantify the data, the ratio of MMP-1/GAPDH and procollagen type I/GAPDH in normal human dermal fibroblasts was randomly set to 1.0, based on band signal intensity.

[5] = test system: procollagen type I mRNA; experiment: RT-PCR of procollagen type I mRNA in UVB irradiated fibroblasts; type: cell-based, human; conditions: NHDFs after UVB irradiation, 0.01 μg/ml, 0.1 μg/ml and 1 μg/ml, 24 hours; ratio to GAPDH; FIG. 4
Description: as §2, §3

[6] = NHDFs after UVB irradiation, 72 hours, FIG. 3b
[7] = NHDFs prior to UVB irradiation, FIG. 3a

Row | Compound | PIP levels [1, 6] | PIP levels [1, 7] | MMP-1 levels ([2]; 1 μg/ml) | cytotoxicity [3] | mRNA expression of MMP-1 [4] | mRNA expression of procollagen type I [5] | MMP-1 levels ([2]; 0.1 μg/ml)
1 | CC(=O)Cc1cc(=O)c2c(C)cc(O)c([C@@H]3O[C@H](CO)[C@@H](O)[C@H](O)[C@H]3OC(=O)/C=C/c3ccc(O)cc3)c2o1 [aloeresin A] | significantly increased PIP levels | significantly increased PIP levels |  |  |  |  | 
2 | COc1cc(C)c2c(=O)cc(C[C@H](C)O)oc2c1[C@@H]1O[C@H](CO)[C@@H](O)[C@H](O)[C@H]1OC(=O)/C=C/c1ccc(O)cc1 [isoaloeresin D] | significantly increased PIP levels | significantly increased PIP levels | significantly decreased MMP-1 levels |  |  |  | 
3 | CC(=O)Cc1cc(=O)c2c(C)cc(O)c([C@@H]3O[C@H](CO)[C@@H](O)[C@H](O)[C@H]3O)c2o1 [aloesin] | significantly increased PIP levels | significantly increased PIP levels |  | decreased cytotoxicity | decreased mRNA expression of MMP-1 | significantly increased mRNA expression of procollagen type I | significantly decreased MMP-1 levels
